Source: patent US8791303B2, “Herbicides” (Syngenta Limited, priority 2009, dated 2014)
Values belong to the molecule of their own block, whether it stands above or below them.

Assays:
[1] = tested on: Echinochloa crus-galli (ECHCG); experiment: Example A glasshouse herbicide test, pre-emergence, ECHCG; type: in vivo; details: Echinochloa crus-galli, pre-emergence, 312 h, Rate 250 g/ha, sprayed after cultivation for one day, evaluated after 13 days, read-out: Pre-Emergence Activity ECHCG (100=total damage to plant; 0=no damage to plant)
Method in brief: (§1)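 Glasshouse pots, standard soil; spray at day 1 (pre-em.) or day 8 (post-em.); acetone/water 50:50 + 0.5% Tween 20 vehicle; 24/16° C., 14 h light, 65% RH, watered twice daily; visual damage rating at 13 d, 100 = total damage, 0 = none.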

[2] = tested on: Lolium perenne (LOLPE); experiment: Example A glasshouse herbicide test, post-emergence, LOLPE; type: in vivo; details: Lolium perenne, post-emergence, 312 h, Rate 250 g/ha, sprayed after 8 days cultivation, evaluated after 13 days, read-out: Post-Emergence Activity LOLPE (100=total damage to plant; 0=no damage to plant)
Method in brief: as §1

[3] = tested on: Alopecurus myosuroides (ALOMY); experiment: Example A glasshouse herbicide test, pre-emergence, ALOMY; type: in vivo; details: Alopecurus myosuroides, pre-emergence, 312 h, Rate 250 g/ha, sprayed after cultivation for one day, evaluated after 13 days, read-out: Pre-Emergence Activity ALOMY (100=total damage to plant; 0=no damage to plant)
Method in brief: as §1

[4] = tested on: Avena fatua (AVEFA); experiment: Example A glasshouse herbicide test, pre-emergence, AVEFA; type: in vivo; details: Avena fatua, pre-emergence, 312 h, Rate 250 g/ha, sprayed after cultivation for one day, evaluated after 13 days, read-out: Pre-Emergence Activity AVEFA (100=total damage to plant; 0=no damage to plant)
Method in brief: as §1

[5] = tested on: Lolium perenne (LOLPE); experiment: Example A glasshouse herbicide test, pre-emergence, LOLPE; type: in vivo; details: Lolium perenne, pre-emergence, 312 h, Rate 250 g/ha, sprayed after cultivation for one day, evaluated after 13 days, read-out: Pre-Emergence Activity LOLPE (100=total damage to plant; 0=no damage to plant)
Method in brief: as §1

[6] = tested on: Winter Wheat variety 'Hereward'; experiment: Example B crop damage test, post-emergence, wheat seed treated with safener cloquintocet mexyl; type: in vivo; details: Rate 250 g/ha; post-emergence spray 8 days after sowing; seed treated with cloquintocet mexyl 0.5 g/kg dry seed; evaluated after 13 days
Method in brief: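 Wheat seed pre-treated with cloquintocet mexyl at 0.5 g/kg seed, sown 8 days before post-emergence spraying of compound in acetone/water (50:50) with 0.5% Tween 20. Glasshouse at 24/16° C, 14 h light, 65% humidity. Damage scored visually after 13 days, 0 (none) to 100 (total).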

[7] = tested on: Winter Wheat variety 'Hereward'; experiment: Example B crop damage test, post-emergence, unsafened wheat; type: in vivo; details: Rate 250 g/ha; post-emergence spray after 8 days cultivation; no safener; evaluated after 13 days
Method in brief: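 Winter wheat 'Hereward' was sprayed post-emergence 8 days after sowing, using formulated active ingredient in acetone/water (50:50) with 0.5% Tween 20. Plants grew in a glasshouse at 24/16 °C day/night, 14 h light and 65% humidity. Damage was scored 13 days later (0 = none, 100 = total).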

[8] = tested on: Echinochloa crus-galli (ECHCG); experiment: Example A glasshouse herbicide test, post-emergence, ECHCG; type: in vivo; details: Echinochloa crus-galli, post-emergence, 312 h, Rate 250 g/ha, sprayed after 8 days cultivation, evaluated after 13 days, read-out: Post-Emergence Activity ECHCG (100=total damage to plant; 0=no damage to plant)
Method in brief: as §1

[9] = tested on: Alopecurus myosuroides (ALOMY); experiment: Example A glasshouse herbicide test, post-emergence, ALOMY; type: in vivo; details: Alopecurus myosuroides, post-emergence, 312 h, Rate 250 g/ha, sprayed after 8 days cultivation, evaluated after 13 days, read-out: Post-Emergence Activity ALOMY (100=total damage to plant; 0=no damage to plant)
Method in brief: as §1

[10] = tested on: Avena fatua (AVEFA); experiment: Example A glasshouse herbicide test, post-emergence, AVEFA; type: in vivo; details: Avena fatua, post-emergence, 312 h, Rate 250 g/ha, sprayed after 8 days cultivation, evaluated after 13 days, read-out: Post-Emergence Activity AVEFA (100=total damage to plant; 0=no damage to plant)
Method in brief: as §1

melting point: 197.3 to 197.6 °C
Structure (SMILES): COc1ccc(CC2CC(=O)C(c3c(C)cc(C)cc3C)C2=O)cc1 (stereo not drawn) [Compound A24]
pest or weed control at 250 g/ha [1]: 80%
pest or weed control at 250 g/ha [2]: 80%
pest or weed control at 250 g/ha [3]: 90%
pest or weed control at 250 g/ha [4]: 80%
pest or weed control at 250 g/ha [5]: 100%
Winter Wheat (Hereward) + cloquintocet mexyl damage (100=total damage to plant; 0=no damage to plant) [6]: 10
Winter Wheat (Hereward) damage (100=total damage to plant; 0=no damage to plant) [7]: 40
pest or weed control at 250 g/ha [8]: 30%
pest or weed control at 250 g/ha [9]: 80%
pest or weed control at 250 g/ha [10]: 90%

melting point: 249 to 251 °C
Structure (SMILES): Cc1cc(C)c(C2C(=O)CC(Cc3ccc(C#N)cc3)C2=O)c(C)c1 (stereo not drawn) [Compound A19]
pest or weed control at 250 g/ha [1]: 100%
pest or weed control at 250 g/ha [2]: 90%
pest or weed control at 250 g/ha [3]: 80%
pest or weed control at 250 g/ha [4]: 40%
pest or weed control at 250 g/ha [5]: 90%
Winter Wheat (Hereward) + cloquintocet mexyl damage (100=total damage to plant; 0=no damage to plant) [6]: 10
Winter Wheat (Hereward) damage (100=total damage to plant; 0=no damage to plant) [7]: 60
pest or weed control at 250 g/ha [8]: 90%
pest or weed control at 250 g/ha [9]: 90%
pest or weed control at 250 g/ha [10]: 60%

melting point: 181 to 184 °C
Structure (SMILES): Cc1cc(C)cc(CC2CC(=O)C(c3c(C)cc(C)cc3C)C2=O)c1 (stereo not drawn) [Compound A21]
pest or weed control at 250 g/ha [1]: 90%
pest or weed control at 250 g/ha [2]: 30%
pest or weed control at 250 g/ha [3]: 60%
pest or weed control at 250 g/ha [4]: 20%
pest or weed control at 250 g/ha [5]: 100%
Winter Wheat (Hereward) + cloquintocet mexyl damage (100=total damage to plant; 0=no damage to plant) [6]: 20
Winter Wheat (Hereward) damage (100=total damage to plant; 0=no damage to plant) [7]: 20
pest or weed control at 250 g/ha [8]: 60%
pest or weed control at 250 g/ha [9]: 40%
pest or weed control at 250 g/ha [10]: 20%

melting point: 193 to 193.2 °C
Structure (SMILES): Cc1cc(C)c(C2C(=O)CC(Cc3cc(F)cc(F)c3)C2=O)c(C)c1 (stereo not drawn) [Compound A20]
pest or weed control at 250 g/ha [1]: 80%
pest or weed control at 250 g/ha [2]: 50%
pest or weed control at 250 g/ha [3]: 30%
pest or weed control at 250 g/ha [4]: 20%
pest or weed control at 250 g/ha [5]: 100%
Winter Wheat (Hereward) + cloquintocet mexyl damage (100=total damage to plant; 0=no damage to plant) [6]: 0
Winter Wheat (Hereward) damage (100=total damage to plant; 0=no damage to plant) [7]: 10
pest or weed control at 250 g/ha [8]: 50%
pest or weed control at 250 g/ha [9]: 20%
pest or weed control at 250 g/ha [10]: 30%

melting point: 235.3 to 238.6 °C
Structure (SMILES): Cc1cc(C)c(C2C(=O)CC(Cc3ccc(S(C)(=O)=O)cc3)C2=O)c(C)c1 (stereo not drawn) [Compound A23]
pest or weed control at 250 g/ha [1]: 90%
pest or weed control at 250 g/ha [2]: 50%
pest or weed control at 250 g/ha [3]: 90%
pest or weed control at 250 g/ha [4]: 80%
pest or weed control at 250 g/ha [5]: 100%
Winter Wheat (Hereward) + cloquintocet mexyl damage (100=total damage to plant; 0=no damage to plant) [6]: 50
Winter Wheat (Hereward) damage (100=total damage to plant; 0=no damage to plant) [7]: 50
pest or weed control at 250 g/ha [8]: 90%
pest or weed control at 250 g/ha [9]: 90%
pest or weed control at 250 g/ha [10]: 90%

melting point: 189 to 191.7 °C
Structure (SMILES): Cc1cc(C)c(C2C(=O)CC(Cc3ccc(CS(=O)(=O)c4ccccc4)cc3)C2=O)c(C)c1 (stereo not drawn) [Compound A22]
pest or weed control at 250 g/ha [1]: 30%
pest or weed control at 250 g/ha [2]: 20%
pest or weed control at 250 g/ha [3]: 0%
pest or weed control at 250 g/ha [4]: 0%
pest or weed control at 250 g/ha [5]: 20%
pest or weed control at 250 g/ha [8]: 20%
pest or weed control at 250 g/ha [9]: 0%
pest or weed control at 250 g/ha [10]: 10%

Second part, the molecule before the results:

Structure (SMILES): Cc1cc(C)c(C2C(=O)CC(Cc3ccccc3)C2=O)c(C)c1 (stereo not drawn) [Compound A17]
pest or weed control at 250 g/ha [1]: 70%
pest or weed control at 250 g/ha [2]: 80%
pest or weed control at 250 g/ha [3]: 50%
melting point: 160 to 165 °C
pest or weed control at 250 g/ha [4]: 30%
pest or weed control at 250 g/ha [5]: 90%
Winter Wheat (Hereward) + cloquintocet mexyl damage (100=total damage to plant; 0=no damage to plant) [6]: 10
Winter Wheat (Hereward) damage (100=total damage to plant; 0=no damage to plant) [7]: 10
pest or weed control at 250 g/ha [8]: 60%
pest or weed control at 250 g/ha [9]: 80%
pest or weed control at 250 g/ha [10]: 40%

Structure (SMILES): Cc1cccc(CC2CC(=O)C(c3c(C)cc(C)cc3C)C2=O)c1 (stereo not drawn) [Compound A18]
pest or weed control at 250 g/ha [1]: 100%
pest or weed control at 250 g/ha [2]: 90%
pest or weed control at 250 g/ha [3]: 80%
melting point: 173 to 179 °C
pest or weed control at 250 g/ha [4]: 50%
pest or weed control at 250 g/ha [5]: 100%
Winter Wheat (Hereward) + cloquintocet mexyl damage (100=total damage to plant; 0=no damage to plant) [6]: 10
Winter Wheat (Hereward) damage (100=total damage to plant; 0=no damage to plant) [7]: 20
pest or weed control at 250 g/ha [8]: 50%
pest or weed control at 250 g/ha [9]: 80%
pest or weed control at 250 g/ha [10]: 50%

Structure (SMILES): Cc1cc(C)c(C2C(=O)CC(Cc3ccccc3F)C2=O)c(C)c1 (stereo not drawn) [Compound A14]
pest or weed control at 250 g/ha [1]: 90%
pest or weed control at 250 g/ha [2]: 90%
pest or weed control at 250 g/ha [3]: 70%
melting point: 197.8 to 210.2 °C
pest or weed control at 250 g/ha [4]: 40%
pest or weed control at 250 g/ha [5]: 100%
Winter Wheat (Hereward) + cloquintocet mexyl damage (100=total damage to plant; 0=no damage to plant) [6]: 20
Winter Wheat (Hereward) damage (100=total damage to plant; 0=no damage to plant) [7]: 30
pest or weed control at 250 g/ha [8]: 80%
pest or weed control at 250 g/ha [9]: 80%
pest or weed control at 250 g/ha [10]: 30%

Structure (SMILES): Cc1cc(C)c(C2C(=O)CC(Cc3cccc(Oc4ccccc4)c3)C2=O)c(C)c1 (stereo not drawn) [Compound A13]
pest or weed control at 250 g/ha [1]: 20%
pest or weed control at 250 g/ha [2]: 20%
pest or weed control at 250 g/ha [3]: 10%
melting point: 192 to 194.8 °C
pest or weed control at 250 g/ha [4]: 0%
pest or weed control at 250 g/ha [5]: 40%
pest or weed control at 250 g/ha [8]: 20%
pest or weed control at 250 g/ha [9]: 30%
pest or weed control at 250 g/ha [10]: 30%

Structure (SMILES): Cc1cc(C)c(C2C(=O)CC(Cc3ccccc3C)C2=O)c(C)c1 (stereo not drawn) [Compound A15]
pest or weed control at 250 g/ha [1]: 60%
pest or weed control at 250 g/ha [2]: 90%
pest or weed control at 250 g/ha [3]: 70%
melting point: 210 to 215.5 °C
pest or weed control at 250 g/ha [4]: 70%
pest or weed control at 250 g/ha [5]: 100%
Winter Wheat (Hereward) + cloquintocet mexyl damage (100=total damage to plant; 0=no damage to plant) [6]: 20
Winter Wheat (Hereward) damage (100=total damage to plant; 0=no damage to plant) [7]: 30
pest or weed control at 250 g/ha [8]: 40%
pest or weed control at 250 g/ha [9]: 80%
pest or weed control at 250 g/ha [10]: 50%

Structure (SMILES): Cc1cc(C)c(C2C(=O)CC(Cc3ccc(-c4csnn4)cc3)C2=O)c(C)c1 (stereo not drawn) [Compound A16]
pest or weed control at 250 g/ha [1]: 80%
pest or weed control at 250 g/ha [2]: 30%
pest or weed control at 250 g/ha [3]: 10%
melting point: 225 to 232 °C
pest or weed control at 250 g/ha [4]: 30%
pest or weed control at 250 g/ha [5]: 70%
pest or weed control at 250 g/ha [8]: 50%
pest or weed control at 250 g/ha [9]: 20%
pest or weed control at 250 g/ha [10]: 50%
